Columns and labels:
[1] = test system: A549; assay: MTT anti-proliferative assay, A549
Experimental: (§2) The anti-proliferative activity was quantified in the following way. At a density of 3–8 × 10^3 cells per well, human cancer cell lines were introduced to 96-well plates. The wells were then incubated at 37 °C for 12 hours in 5% CO2 incubator. To determine the DMSO content, the culture media was swapped with 0.1 ml of fresh medium containing graded amounts of the test compounds for each well. Incubation time for the wells was two days. The cells were then cultured in 100 µl MTT solution (5 µg ml^−1) for another 4 hours in each well.
(§3) The absorbance of each well was measured at 490 nm with an automated ELISA reader system (TECAN, CHE) after MTT-formazan crystals were dissolved in 100 µl of DMSO. The IC50 values were calculated using nonlinear regression fitting models (Graph Pad, Prism Version 5). The results were expressed as means ± SD and were based on the average of three separate, duplicate trials.

[2] = biological target: T1, EGFR^T790M (Homo sapiens, UniProt P00533, T790M); assay: EGFR^T790M kinase inhibitory assay (HTRF); assay type: biochemical; conditions: ATP 1.65 µM, mean ± S.D of three experiments, read-out: EGFR^790M IC50
T1 construct: purchased Sigma
Experimental: This test used HTRF[44] assay with EGFR^WT and EGFR^T790M (Sigma). For the first 5 minutes, the evaluated compounds were incubated with EGFR^WT and/or EGFR^T790M and their substrates in the enzymatic buffer. […] The assay was performed at 37 °C for 30 minutes. The addition of EDTA-containing detection reagents halted the process. After one hour detection period, GraphPad Prism 5.0 was used to calculate the IC50 values. For each concentration, three separate trials were carried out.

[3] = biological target: T2, EGFR (Homo sapiens, UniProt P00533); assay: Western blotting, EGFR degradation in A549 cells; assay type: cell-based
T2 construct: EGFR degradation activities of compounds in A549 cells; endogenous in cells; host or cells: A549
Experimental: Following this, the target compounds 15–21 tethering various E3 ligases ligand were chosen as representative PROTACs for further degradation study based on temporal data.
Figure 4. (A) EGFR degradation activities of compounds in A549 cells. Cells were treated for 48 h with concentration of 0.1 and 1 µM. (B) Effects of concentration-dependent EGFR degradation by compounds 15–21 in A549 cell lines. Cells were treated for 48 h with a concentration from 1 nM to 10 µM. EGFR protein was examined by Western blotting analysis and EGFR degradation rate was quantified by densitometry and normalised to the corresponding density of β-actin protein (n ¼ 3). TEXT PRINTED IN THE PICTURE: (B) Comp 15: DC50 = 43.4 nm | (B) Comp 16: DC50= 32.9 nm DOUBTS OF THE COPYIST ABOUT THIS PICTURE: Comp 15, DC50: 43.4 is small blurred print; the 3 could be 8 and the digits are not certain / Comp 16, DC50: 32.9 is small blurred print; the 3 could be 8 and the 9 could be 8 or 0
We set nine concentration gradients ranging from […] to 10 µM to determine the degradation activity of all tested compounds and calculated the DC50 (concentration that caused deletion of 50% of EGFR) values.
(§1) At a concentration of 100 nM, the time-dependent degradation activities of compounds 15–21 were also examined (Figure 5(A)).
Figure 5. (A) EGFR time-dependent degradation by compound 16 in A549 cell lines. Cells were treated with100 nM of 15–21 for indicated time points. Western blotting was used to evaluate EGFR protein, and densitometry was used to measure EGFR degradation, which was adjusted to the density of β-actin protein (n ¼2). (B) Compounds 15 and 16 have EGFR degradation and phosphorylation inhibitory action in A549 cells. The cells were exposed to concentrations of 0.1, 0.3, and 1 µM. Erlotinib were utilised for comparison. TEXT PRINTED IN THE PICTURE: (A) Comp 15: Dmax = 85 % @ 96 h; Degradation: 9 (4 h; 100 nM); Degradation: 22 (8 h; 100 nM); Degradation: 42 (12 h; 100 nM); Degradation: 83 (24 h; 100 nM); Degradation: 84 (36 h; 100 nM); Degradation: 82 (48 h; 100 nM); Degradation: 82 (72 h; 100 nM); Degradation: 85 (96 h; 100 nM) | (A) Comp 16: Dmax = 96 % @72 h; Degradation: 32 (4 h; 100 nM); Degradation: 43 (8 h; 100 nM); Degradation: 67 (12 h; 100 nM); Degradation: 69 (24 h; 100 nM); Degradation: 78 (36 h; 100 nM); Degradation: 85 (48 h; 100 nM); Degradation: 96 (72 h; 100 nM); Degradation: 94 (96 h; 100 nM) DOUBTS OF THE COPYIST ABOUT THIS PICTURE: Comp 15, Dmax: print is blurred, 85 % @ 96 h is the best reading (85 or 86) / Comp 16, Dmax: print is small and blurred, 96 % @72 h is the best reading (96 or 95; the % sign is unclear) / Comp 15, Degradation row: print is blurred, 83/84/82/82/85 are best readings (3, 5, 8 are hard to tell apart) / Comp 16, Degradation row: print is blurred, 67/69/78/85/96/94 are best readings (5, 6, 8, 9 are hard to tell apart) / The Degradation rows are printed under the blot lanes with no unit. The value 0 under the 0.1 % DMSO control lane was not assigned to any compound.
Cells were seeded in 6-well plates at 1 × 10^6 per well, incubated at 37 °C with 5% CO2 for 24 h before drug exposure. Cells were treated with different concentrations of synthesised compounds for […], then collected and suspended in lysis buffer (Beyotime) and centrifuged for 20 min at 12000 rpm, later removed the insoluble material. […] The results were detected by an enhanced chemiluminescence system (Mill-pore). […]

[4] = test system: EGFR phosphorylation; assay: Western blotting, EGFR phosphorylation in A549 cells; assay type: cell-based, human; conditions: A549 cells, 0.1, 0.3 and 1 µM, erlotinib for comparison
Experimental: as §1
Figure 5. (A) EGFR time-dependent degradation by compound 16 in A549 cell lines. Cells were treated with100 nM of 15–21 for indicated time points. Western blotting was used to evaluate EGFR protein, and densitometry was used to measure EGFR degradation, which was adjusted to the density of β-actin protein (n ¼2). (B) Compounds 15 and 16 have EGFR degradation and phosphorylation inhibitory action in A549 cells. The cells were exposed to concentrations of 0.1, 0.3, and 1 µM. Erlotinib were utilised for comparison. […]
Cells were seeded in 6-well plates at 1 × 10^6 per well, incubated at 37 °C with 5% CO2 for 24 h before drug exposure. […] The results were detected by an enhanced chemiluminescence system (Mill-pore). […]

[5] = test system: HepG-2; assay: MTT anti-proliferative assay, HepG-2
Experimental: as §2, §3

[6] = ratio of cytotoxic IC50 to erlotinib

T2 sequence (P00533 25-1210): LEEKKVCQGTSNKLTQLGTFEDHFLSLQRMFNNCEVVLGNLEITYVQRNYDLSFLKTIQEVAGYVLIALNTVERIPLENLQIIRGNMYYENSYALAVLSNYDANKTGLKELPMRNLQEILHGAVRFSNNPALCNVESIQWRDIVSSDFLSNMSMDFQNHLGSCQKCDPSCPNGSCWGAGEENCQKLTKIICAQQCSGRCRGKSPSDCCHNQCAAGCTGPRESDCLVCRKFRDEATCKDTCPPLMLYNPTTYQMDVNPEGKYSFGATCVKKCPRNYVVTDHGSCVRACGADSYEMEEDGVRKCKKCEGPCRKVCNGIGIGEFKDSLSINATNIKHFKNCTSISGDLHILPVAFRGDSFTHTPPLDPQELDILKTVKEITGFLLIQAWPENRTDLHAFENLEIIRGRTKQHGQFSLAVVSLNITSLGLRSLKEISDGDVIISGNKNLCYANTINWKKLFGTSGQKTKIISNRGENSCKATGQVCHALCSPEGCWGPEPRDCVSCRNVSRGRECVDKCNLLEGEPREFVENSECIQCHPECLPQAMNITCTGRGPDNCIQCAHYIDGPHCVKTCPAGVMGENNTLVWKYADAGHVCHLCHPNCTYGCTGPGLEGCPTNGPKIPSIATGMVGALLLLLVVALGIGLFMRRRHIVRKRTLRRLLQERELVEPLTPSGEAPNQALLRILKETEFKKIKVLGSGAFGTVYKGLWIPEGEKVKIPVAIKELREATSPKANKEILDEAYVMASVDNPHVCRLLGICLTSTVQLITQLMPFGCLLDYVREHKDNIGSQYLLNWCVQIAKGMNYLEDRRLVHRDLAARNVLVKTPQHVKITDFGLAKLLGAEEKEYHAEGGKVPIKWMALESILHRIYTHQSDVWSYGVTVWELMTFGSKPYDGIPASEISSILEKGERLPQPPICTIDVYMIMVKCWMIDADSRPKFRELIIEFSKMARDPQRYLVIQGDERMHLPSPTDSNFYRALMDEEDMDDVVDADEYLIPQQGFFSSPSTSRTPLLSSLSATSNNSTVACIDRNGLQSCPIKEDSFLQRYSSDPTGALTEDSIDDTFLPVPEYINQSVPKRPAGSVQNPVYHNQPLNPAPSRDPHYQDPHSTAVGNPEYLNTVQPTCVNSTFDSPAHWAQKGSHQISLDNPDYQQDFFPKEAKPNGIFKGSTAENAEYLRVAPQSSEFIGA
T1 sequence (P00533 25-1210 T790M): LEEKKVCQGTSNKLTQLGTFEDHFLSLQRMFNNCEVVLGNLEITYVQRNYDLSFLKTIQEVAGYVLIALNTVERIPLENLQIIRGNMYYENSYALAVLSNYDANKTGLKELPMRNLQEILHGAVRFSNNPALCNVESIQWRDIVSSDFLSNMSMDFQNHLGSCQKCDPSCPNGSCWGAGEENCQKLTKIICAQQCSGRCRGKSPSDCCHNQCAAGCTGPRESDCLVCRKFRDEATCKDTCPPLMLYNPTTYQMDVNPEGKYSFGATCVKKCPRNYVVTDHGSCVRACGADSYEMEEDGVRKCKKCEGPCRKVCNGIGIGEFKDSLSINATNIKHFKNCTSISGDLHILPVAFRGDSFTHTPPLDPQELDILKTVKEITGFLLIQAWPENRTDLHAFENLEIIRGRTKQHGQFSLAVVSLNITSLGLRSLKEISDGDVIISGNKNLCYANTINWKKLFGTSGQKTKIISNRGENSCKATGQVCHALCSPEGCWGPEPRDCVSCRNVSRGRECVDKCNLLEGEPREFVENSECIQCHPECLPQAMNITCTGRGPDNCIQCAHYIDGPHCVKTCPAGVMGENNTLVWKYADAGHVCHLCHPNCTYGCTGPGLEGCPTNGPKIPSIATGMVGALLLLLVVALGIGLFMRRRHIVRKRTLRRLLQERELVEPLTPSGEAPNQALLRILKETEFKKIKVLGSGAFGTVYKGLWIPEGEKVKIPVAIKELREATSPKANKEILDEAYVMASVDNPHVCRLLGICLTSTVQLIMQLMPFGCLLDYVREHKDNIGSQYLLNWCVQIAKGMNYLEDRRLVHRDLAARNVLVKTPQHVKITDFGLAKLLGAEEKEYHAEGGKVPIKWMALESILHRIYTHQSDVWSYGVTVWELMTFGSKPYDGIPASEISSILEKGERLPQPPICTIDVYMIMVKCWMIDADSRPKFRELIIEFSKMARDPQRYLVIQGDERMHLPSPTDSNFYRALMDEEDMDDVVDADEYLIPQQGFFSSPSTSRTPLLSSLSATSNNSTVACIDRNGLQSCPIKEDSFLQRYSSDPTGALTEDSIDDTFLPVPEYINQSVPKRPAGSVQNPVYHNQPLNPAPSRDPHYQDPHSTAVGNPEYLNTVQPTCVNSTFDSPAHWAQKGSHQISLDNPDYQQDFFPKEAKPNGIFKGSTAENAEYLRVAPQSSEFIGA

IC50 ([1]; Homo sapiens, A549, read-out: IC50 A549): 2690 ± 90 nM | IC50 [2]: 4020 ± 190 nM | Dmax at 0.1 µM ([3]; A549, A549 cells, 100 nM, time course, reached at 96 h (15) and 72 h (16), read-out: Dmax, maximum EGFR degradation rate): 96% | DC50 ([3]; A549 cells, 48 h, Western blotting densitometry, read-out: DC50 (concentration that caused deletion of 50% of EGFR)): 32.9 nM | concentration-dependent EGFR degradation, in words ([3]; A549 cells, 48 h, concentration series up to 10 µM): hook effect
SMILES: Cn1c(=O)c(C(=O)NNCCOCCOCC(=O)Nc2cccc3c2C(=O)N(C2CCC(=O)NC2=O)C3=O)nc2ccccc21 (stereo not drawn) [Compound 16, N-(2-(2,6-dioxopiperidin-3-yl)-1,3-dioxoisoindolin-4-yl)-2-(2-(2-(2-(4-methyl-3-oxo-3,4-dihydroquinoxaline-2-carbonyl) hydrazinyl)ethoxy)ethoxy) acetamide]
folds more active than erlotinib, A549 [1, 6]: 7.18 folds | inhibition of EGFR phosphorylation, in words [4]: effectively displayed inhibitory activity | IC50 ([5]; Homo sapiens, HepG2, read-out: IC50 HepG-2): 3020 ± 120 nM | folds more active than erlotinib, HepG-2 [5, 6]: 4.34 folds

— paper PMC9067978, “Design, synthesis, and molecular docking studies of novel pomalidomide-based PROTACs as potential anti-cancer agents targeting EGFR^WT and EGFR^T790M” (Journal of Enzyme Inhibition and Medicinal Chemistry, 2022)
